{"source": "patent US6355799B1", "about": "“Substituted benzene compounds, process for their preparation, and herbicidal and defoliant compositions containing them” (ISK Americas Incorporated, priority 1997, dated 2002)", "type_in_all_cases": "in vivo", "key": {"[1]": {"test_system": "barnyardgrass (Echinochloa crus-galli, ECHCG)", "assay": "Post-emerge test, greenhouse herbicide activity screening", "conditions": "rating scale 0-100 (0 no damage, 100 complete death), 14 days after application", "procedure,_shortened": "(§1)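 Compounds in acetone were track-sprayed at 15-1000 g ai/ha (187 l/ha) on sandy loam pots: pre-emerge one day after seeding, post-emerge at 2-3 leaf stage with 0.25% v/v non-ionic surfactant. Phytotoxicity was rated 14 days later on a 0 (no damage) to 100 (complete death) scale.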"}, "[2]": {"test_system": "redroot pigweed (Amaranthus retroflexus, AMARE)", "assay": "Post-emerge test, greenhouse herbicide activity screening", "conditions": "rating scale 0-100 (0 no damage, 100 complete death), 14 days after application", "procedure,_shortened": "as §1"}, "[3]": {"test_system": "large crabgrass (Digitaria sanguinalis, DIGSA)", "assay": "Post-emerge test, greenhouse herbicide activity screening", "conditions": "rating scale 0-100 (0 no damage, 100 complete death), 14 days after application", "procedure,_shortened": "as §1"}, "[4]": {"test_system": "velvetleaf (Abutilon theophrasti, ABUTH)", "assay": "Post-emerge test, greenhouse herbicide activity screening", "conditions": "rating scale 0-100 (0 no damage, 100 complete death), 14 days after application", "procedure,_shortened": "as §1"}, "[5]": {"test_system": "sicklepod (Cassia obtusifolia, CASOB)", "assay": "Post-emerge test, greenhouse herbicide activity screening", "conditions": "rating scale 0-100 (0 no damage, 100 complete death), 14 days after application", "procedure,_shortened": "as §1"}, "[6]": {"test_system": "ivyleaf morningglory (Ipomoea hederacea, IPOHE)", "assay": "Post-emerge test, greenhouse herbicide activity screening", "conditions": "rating scale 0-100 (0 no damage, 100 complete death), 14 days after application", "procedure,_shortened": "as §1"}, "[7]": {"test_system": "lambsquarters (Chenopodium album, CHEAL)", "assay": "Post-emerge test, greenhouse herbicide activity screening", "conditions": "rating scale 0-100 (0 no damage, 100 complete death), 14 days after application", "procedure,_shortened": "as §1"}, "[8]": {"test_system": "johnsongrass (Sorghum halepense, SORHA)", "assay": "Post-emerge test, greenhouse herbicide activity screening", "conditions": "rating scale 0-100 (0 no damage, 100 complete death), 14 days after application", "procedure,_shortened": "as §1"}, "[9]": {"test_system": "green foxtail (Setaria viridis, SETVI)", "assay": "Post-emerge test, greenhouse herbicide activity screening", "conditions": "rating scale 0-100 (0 no damage, 100 complete death), 14 days after application", "procedure,_shortened": "as §1"}, "[10]": {"test_system": "barnyardgrass (Echinochloa crus-galli, ECHCG)", "assay": "Pre-emerge test, greenhouse herbicide activity screening", "conditions": "rating scale 0-100, 14 days after application", "procedure,_shortened": "(§2)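 Compounds in acetone were track-sprayed at 187 l/ha, 15–1000 g ai/ha, onto sandy loam pots. Pre-emerge seeds were sown one day before spraying, with surface watering afterwards. Post-emerge plants were at the 2–3 leaf stage and sprayed with 0.25% v/v non-ionic surfactant. Injury was rated 0–100 at 14 days.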"}, "[11]": {"test_system": "large crabgrass (Digitaria sanguinalis, DIGSA)", "assay": "Pre-emerge test, greenhouse herbicide activity screening", "conditions": "rating scale 0-100, 14 days after application", "procedure,_shortened": "as §2"}, "[12]": {"test_system": "velvetleaf (Abutilon theophrasti, ABUTH)", "assay": "Pre-emerge test, greenhouse herbicide activity screening", "conditions": "rating scale 0-100, 14 days after application", "procedure,_shortened": "as §2"}, "[13]": {"test_system": "sicklepod (Cassia obtusifolia, CASOB)", "assay": "Pre-emerge test, greenhouse herbicide activity screening", "conditions": "rating scale 0-100, 14 days after application", "procedure,_shortened": "as §2"}, "[14]": {"test_system": "ivyleaf morningglory (Ipomoea hederacea, IPOHE)", "assay": "Pre-emerge test, greenhouse herbicide activity screening", "conditions": "rating scale 0-100, 14 days after application", "procedure,_shortened": "as §2"}, "[15]": {"test_system": "lambsquarters (Chenopodium album, CHEAL)", "assay": "Pre-emerge test, greenhouse herbicide activity screening", "conditions": "rating scale 0-100, 14 days after application", "procedure,_shortened": "as §2"}, "[16]": {"test_system": "johnsongrass (Sorghum halepense, SORHA)", "assay": "Pre-emerge test, greenhouse herbicide activity screening", "conditions": "rating scale 0-100, 14 days after application", "procedure,_shortened": "as §2"}, "[17]": {"test_system": "green foxtail (Setaria viridis, SETVI)", "assay": "Pre-emerge test, greenhouse herbicide activity screening", "conditions": "rating scale 0-100, 14 days after application", "procedure,_shortened": "as §2"}, "[18]": {"test_system": "upland rice (Oryza sp., var. Tebonnet, RICE)", "assay": "Post-emerge test, crop safety", "conditions": "rating scale 0-100 (0 no damage, 100 complete death), 14 days after application", "procedure,_shortened": "as §2"}, "[19]": {"test_system": "field corn (Zea mays L., var. Dekalb 535, CORN)", "assay": "Post-emerge test, crop safety", "conditions": "rating scale 0-100 (0 no damage, 100 complete death), 14 days after application", "procedure,_shortened": "as §2"}, "[20]": {"test_system": "redroot pigweed (Amaranthus retroflexus, AMARE)", "assay": "Pre-emerge test, greenhouse herbicide activity screening", "conditions": "rating scale 0-100, 14 days after application", "procedure,_shortened": "as §1"}, "[21]": {"test_system": "upland rice (Oryza sp., var. Tebonnet, RICE)", "assay": "Pre-emerge test, crop safety", "conditions": "rating scale 0-100, 14 days after application", "procedure,_shortened": "(§3)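 Sandy loam pots; pre-emerge: sown 1 d pre-spray, surface-watered after, then bottom-watered. Post-emerge: sown 8–21 d before, 2–3 leaf stage, + 0.25% v/v NIS, bottom-watered. Acetone, 187 l/ha track spray, 15–1000 g ai/ha. 0–100 injury score, day 14.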"}, "[22]": {"test_system": "field corn (Zea mays L., var. Dekalb 535, CORN)", "assay": "Pre-emerge test, crop safety", "conditions": "rating scale 0-100, 14 days after application", "procedure,_shortened": "as §3"}}, "data": [{"molecule": "CCCCCCOC(=O)C(C)(Cl)Cc1c(OC)c(Cl)cc(F)c1-n1c(=O)cc(C(F)(F)F)n(C)c1=O", "note": "(centres unmarked) [14-38]", "values": [{"measurement": "Post-emerge Herbicidal Activity, phytotoxicity rating ECHCG", "setting": "[1]; Rate 63 g ai/ha", "result": 100}, {"measurement": "Post-emerge Herbicidal Activity, phytotoxicity rating ECHCG", "setting": "[1]; Rate 250 g ai/ha", "result": 100}, {"measurement": "Post-emerge Herbicidal Activity, phytotoxicity rating AMARE", "setting": "[2]; Rate 63 g ai/ha", "result": 100}, {"measurement": "Post-emerge Herbicidal Activity, phytotoxicity rating AMARE", "setting": "[2]; Rate 250 g ai/ha", "result": 100}, {"measurement": "Post-emerge Herbicidal Activity, phytotoxicity rating DIGSA", "setting": "[3]; Rate 63 g ai/ha", "result": 95}, {"measurement": "Post-emerge Herbicidal Activity, phytotoxicity rating DIGSA", "setting": "[3]; Rate 250 g ai/ha", "result": 100}, {"measurement": "Post-emerge Herbicidal Activity, phytotoxicity rating ABUTH", "setting": "[4]; Rate 63 g ai/ha", "result": 100}, {"measurement": "Post-emerge Herbicidal Activity, phytotoxicity rating ABUTH", "setting": "[4]; Rate 250 g ai/ha", "result": 100}, {"measurement": "Post-emerge Herbicidal Activity, phytotoxicity rating CASOB", "setting": "[5]; Rate 63 g ai/ha", "result": 0}, {"measurement": "Post-emerge Herbicidal Activity, phytotoxicity rating CASOB", "setting": "[5]; Rate 250 g ai/ha", "result": 0}, {"measurement": "Post-emerge Herbicidal Activity, phytotoxicity rating IPOHE", "setting": "[6]; Rate 63 g ai/ha", "result": 70}, {"measurement": "Post-emerge Herbicidal Activity, phytotoxicity rating IPOHE", "setting": "[6]; Rate 250 g ai/ha", "result": 70}, {"measurement": "Post-emerge Herbicidal Activity, phytotoxicity rating CHEAL", "setting": "[7]; Rate 63 g ai/ha", "result": 100}, {"measurement": "Post-emerge Herbicidal Activity, phytotoxicity rating CHEAL", "setting": "[7]; Rate 250 g ai/ha", "result": 100}, {"measurement": "Post-emerge Herbicidal Activity, phytotoxicity rating SORHA", "setting": "[8]; Rate 63 g ai/ha", "result": 0}, {"measurement": "Post-emerge Herbicidal Activity, phytotoxicity rating SORHA", "setting": "[8]; Rate 250 g ai/ha", "result": 30}, {"measurement": "Post-emerge Herbicidal Activity, phytotoxicity rating SETVI", "setting": "[9]; Rate 63 g ai/ha", "result": 90}, {"measurement": "Post-emerge Herbicidal Activity, phytotoxicity rating SETVI", "setting": "[9]; Rate 250 g ai/ha", "result": 100}, {"measurement": "Pre-emerge herbicidal activity, phytotoxicity rating ECHCG", "setting": "[10]; 63 g ai/ha", "result": 0}, {"measurement": "Pre-emerge herbicidal activity, phytotoxicity rating ECHCG", "setting": "[10]; 250 g ai/ha", "result": 70}, {"measurement": "Pre-emerge herbicidal activity, phytotoxicity rating DIGSA", "setting": "[11]; 63 g ai/ha", "result": 0}, {"measurement": "Pre-emerge herbicidal activity, phytotoxicity rating DIGSA", "setting": "[11]; 250 g ai/ha", "result": 90}, {"measurement": "Pre-emerge herbicidal activity, phytotoxicity rating ABUTH", "setting": "[12]; 63 g ai/ha", "result": 40}, {"measurement": "Pre-emerge herbicidal activity, phytotoxicity rating ABUTH", "setting": "[12]; 250 g ai/ha", "result": 100}, {"measurement": "Pre-emerge herbicidal activity, phytotoxicity rating CASOB", "setting": "[13]; 63 g ai/ha", "result": 0}, {"measurement": "Pre-emerge herbicidal activity, phytotoxicity rating CASOB", "setting": "[13]; 250 g ai/ha", "result": 0}, {"measurement": "Pre-emerge herbicidal activity, phytotoxicity rating IPOHE", "setting": "[14]; 63 g ai/ha", "result": 0}, {"measurement": "Pre-emerge herbicidal activity, phytotoxicity rating IPOHE", "setting": "[14]; 250 g ai/ha", "result": 0}, {"measurement": "Pre-emerge herbicidal activity, phytotoxicity rating CHEAL", "setting": "[15]; 63 g ai/ha", "result": 90}, {"measurement": "Pre-emerge herbicidal activity, phytotoxicity rating CHEAL", "setting": "[15]; 250 g ai/ha", "result": 100}, {"measurement": "Pre-emerge herbicidal activity, phytotoxicity rating SORHA", "setting": "[16]; 63 g ai/ha", "result": 0}, {"measurement": "Pre-emerge herbicidal activity, phytotoxicity rating SORHA", "setting": "[16]; 250 g ai/ha", "result": 0}, {"measurement": "Pre-emerge herbicidal activity, phytotoxicity rating SETVI", "setting": "[17]; 63 g ai/ha", "result": 0}, {"measurement": "Pre-emerge herbicidal activity, phytotoxicity rating SETVI", "setting": "[17]; 250 g ai/ha", "result": 80}, {"measurement": "Post-emerge phytotoxicity rating RICE (crop damage)", "setting": "[18]; Rate 63 g ai/ha", "result": 0}, {"measurement": "Post-emerge phytotoxicity rating RICE (crop damage)", "setting": "[18]; Rate 250 g ai/ha", "result": 40}, {"measurement": "Post-emerge phytotoxicity rating CORN (crop damage)", "setting": "[19]; Rate 63 g ai/ha", "result": 50}, {"measurement": "Post-emerge phytotoxicity rating CORN (crop damage)", "setting": "[19]; Rate 250 g ai/ha", "result": 100}, {"measurement": "Pre-emerge herbicidal activity, phytotoxicity rating AMARE", "setting": "[20]; 63 g ai/ha", "result": 99}, {"measurement": "Pre-emerge herbicidal activity, phytotoxicity rating AMARE", "setting": "[20]; 250 g ai/ha", "result": 100}, {"measurement": "Pre-emerge phytotoxicity rating, crop damage RICE", "setting": "[21]; 63 g ai/ha", "result": 0}, {"measurement": "Pre-emerge phytotoxicity rating, crop damage RICE", "setting": "[21]; 250 g ai/ha", "result": 30}, {"measurement": "Pre-emerge phytotoxicity rating, crop damage CORN", "setting": "[22]; 63 g ai/ha", "result": 0}, {"measurement": "Pre-emerge phytotoxicity rating, crop damage CORN", "setting": "[22]; 250 g ai/ha", "result": 0}]}]}
